Experimental data from patent publication US20240252488A1 (KOREA RESEARCH INSTITUTE OF CHEMICAL TECHNOLOGY, priority 2020, published 2024).

What was measured:
FADD−/− Jurkat cells = experiment: Necroptosis inhibition assay, TNF-α-induced necroptosis (CellTiter-Glo 2.0); type: cell-based, human; conditions: TNF-α 15 ng/mL; for Necroptosis inhibition assay (Rescue %) 1 μM: compound 1 μM; for Necroptosis inhibition assay (Rescue %) 10 μM: compound 10 μM
In short: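 Tested at three fixed concentrations (0.1, 1, 10 μM final) with a 30-minute room-temperature preincubation ahead of 15 ng/mL TNF-α challenge lasting 20 to 24 hours. Inhibition rate and cytotoxicity derive from ATP luminescence.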

MLKL [1] = target: T1, MLKL (Homo sapiens, UniProt Q8NB16); experiment: MLKL degradation assay in HepG2 cell line (western blot); type: cell-based; parameters: endogenous in cells; host or cells: HepG2 or HaCaT; conditions: cell line not given; for Degradation assay (Degradation %) 1 μM: compound 1 μM; for Degradation assay (Degradation %) 10 μM: compound 10 μM
T1 sequence (Q8NB16 1-471): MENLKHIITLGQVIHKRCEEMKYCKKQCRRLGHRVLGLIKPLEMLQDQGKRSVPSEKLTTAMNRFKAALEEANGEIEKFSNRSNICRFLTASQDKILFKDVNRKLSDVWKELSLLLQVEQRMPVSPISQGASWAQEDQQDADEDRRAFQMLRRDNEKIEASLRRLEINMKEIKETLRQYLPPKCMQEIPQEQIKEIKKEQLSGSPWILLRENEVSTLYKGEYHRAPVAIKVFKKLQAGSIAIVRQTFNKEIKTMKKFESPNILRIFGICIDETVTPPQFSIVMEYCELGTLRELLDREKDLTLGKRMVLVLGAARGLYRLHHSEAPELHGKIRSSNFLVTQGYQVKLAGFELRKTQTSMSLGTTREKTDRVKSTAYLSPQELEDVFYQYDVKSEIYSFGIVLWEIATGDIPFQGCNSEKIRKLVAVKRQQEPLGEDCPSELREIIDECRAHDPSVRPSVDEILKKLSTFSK
Description: MLKL degradation ability was evaluated in the following method.
1 mL of Human liver cancer cell line (HepG2 cell line) or human skin cell line (HaCaT cell line) was equally distributed into each well at 2.0×10^5 cells/mL in a 12-well cell culture plate. On the next day, the medium was replaced with a medium made so that the final concentration of test compound was 1 or 10 μM (1 mL/well), and incubated in 5% CO2, at 37° C. for 20-24 hours (Thermo scientific, Forma steri-cycle).
For protein preparation after incubation, cells were washed with 1×TBST, and 60 μL of RIPA lysis buffer containing Halt™ Protease and Phosphatase Inhibitor Cocktail was dispensed into each well. After scraping the cells with a scraper, the cells were recovered, and the pallet was homogenized and reacted on ice for 30 minutes. After the cells were centrifuged at 13,000 rpm, 10 minutes, 4° C., the supernatant was transferred to a new E-tube. For protein quantification, after dispensing sample and BCA (0-4 mg/ml) in a 96 well plate, 100 μL of BCA was dispensed and reacted in a 37° C. incubator for 30 minutes. After measuring the absorbance (SpectraMax, M5e, 562 nm), the amount of the sample was adjusted with the same concentration of protein and 4× Laemmli sample buffer, DW, and reacted at 100° C. for 5 minutes.
After assembling the MP TGX Precast Gel in the Mini-PROTEAN Tetra Cell, the same protein (10-15 μg) was added in an 8-10 μL volume per well, 1×Tris-Glycine Buffer was added, and loading was performed. After loading was completed, transfer was performed using Pierce G2 Fast Blotter and Pierce 1-Step Transfer Buffer. After completion of the transfer, 10 ml of SuperBlock™ Blocking Buffer was dispensed and reacted at room temperature for 10 minutes. 5% BSA containing the primary antibody was dispensed and reacted over night at 4° C. The next day, washing was performed three times with 1×TBST at room temperature for 10 minutes. 5% BSA containing the secondary antibody was dispensed and reacted at room temperature for 1 hour. Washing was performed three times with 1×TBST at room temperature for 10 minutes. The amount of protein expression was measured using chemiluminescence (LuminoGraph, ATTO).

MLKL [2] = target: T1, MLKL; experiment: Measurement of binding affinity with MLKL receptor (competitive binding assay, Kd); parameters: made in house; host or cells: HEK 293 cell line (T7 phage in E. coli BL21-derived host is also described)
In short: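 Kd comes from a bead-based competition format: compound-dependent loss of DNA-tagged, HEK 293-expressed MLKL capture, measured as eluate kinase by qPCR. Final DMSO is 0.9%.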

Row | Structure (SMILES) | Degradation assay (Degradation %) 1 μM (MLKL [1]) [%] | Degradation assay (Degradation %) 10 μM (MLKL [1]) [%] | Kd (MLKL [2]) [nM] | Necroptosis inhibition assay (Rescue %) 1 μM (FADD−/− Jurkat cells) [%] | Necroptosis inhibition assay (Rescue %) 10 μM (FADD−/− Jurkat cells) [%]
1 | Nc1ncc(-c2cnn(C3CCN(CCOCCNC(=O)CNc4cccc5c4C(=O)N(C4CCC(=O)NC4=O)C5=O)CC3)c2)nc1C(=O)O[C@@H](C(=O)Nc1ccc(F)cc1)c1ccccc1 (stereo partly drawn) [TDH-096, (R)-2-((4-fluorophenyl)amino)-2-oxo-1-phenylethyl 3-amino-6-(1-(1-(2-(2-(2-((2-(2,6-dioxopiperidin-3-yl)-1,3-dioxoisoindolin-4-yl)amino)acetamido)ethoxy)ethyl)piperidin-4-yl)-1H-pyrazol-4-yl)pyrazine-2-carboxylate] | 60.02 | 68.41 | 4 | 32.98 | 30.53
2 | Nc1ncc(-c2cnn(C3CCN(CCOCCOCCNC(=O)CNc4cccc5c4C(=O)N(C4CCC(=O)NC4=O)C5=O)CC3)c2)nc1C(=O)O[C@@H](C(=O)Nc1ccc(F)cc1)c1ccccc1 (stereo partly drawn) [TDH-102, (R)-2-((4-fluorophenyl)amino)-2-oxo-1-phenylethyl 3-amino-6-(1-(1-(2-(2-(2-(2-((2-(2,6-dioxopiperidin-3-yl)-1,3-dioxoisoindolin-4-yl)amino)acetamido)ethoxy)ethoxy)ethyl)piperidin-4-yl)-1H-pyrazol-4-yl)pyrazine-2-carboxylate] | 12.94 | 42.92 | 2.1 | 39.17 | 42.99
3 | Nc1ncc(-c2cnn(C3CCN(C(=O)COCCOCCNc4cccc5c4C(=O)N(C4CCC(=O)NC4=O)C5=O)CC3)c2)nc1C(=O)O[C@@H](C(=O)Nc1ccc(F)cc1)c1ccccc1 (stereo partly drawn) [TDH-104, (R)-2-((4-fluorophenyl)amino)-2-oxo-1-phenylethyl 3-amino-6-(1-(1-(2-(2-(2-((2-(2,6-dioxopiperidin-3-yl)-1,3-dioxoisoindolin-4-yl)amino)ethoxy)ethoxy)acetyl)piperidin-4-yl)-1H-pyrazol-4-yl)pyrazine-2-carboxylate] | 14.79 | 62.43 | 48 | 25.6 | 22.88
4 | Nc1ncc(-c2cnn(C3CCN(C(=O)COCCOCCNc4ccc5c(c4)C(=O)N(C4CCC(=O)NC4=O)C5=O)CC3)c2)nc1C(=O)O[C@@H](C(=O)Nc1ccc(F)cc1)c1ccccc1 (stereo partly drawn) [TDH-105, (R)-2-((4-fluorophenyl)amino)-2-oxo-1-phenylethyl 3-amino-6-(1-(1-(2-(2-(2-((2-(2,6-dioxopiperidin-3-yl)-1,3-dioxoisoindolin-5-yl)amino)ethoxy)ethoxy)acetyl)piperidin-4-yl)-1H-pyrazol-4-yl)pyrazine-2-carboxylate] | 43.02 | 40.8 | 6.1 | 27.07 | 15.46
5 | Nc1ncc(-c2cnn(C3CCN(CCCCCCNC(=O)C4CCN(c5cccc6c5C(=O)N(C5CCC(=O)NC5=O)C6=O)CC4)CC3)c2)nc1C(=O)O[C@@H](C(=O)Nc1ccc(F)cc1)c1ccccc1 (stereo partly drawn) [TDH-108, (R)-2-((4-fluorophenyl)amino)-2-oxo-1-phenylethyl 3-amino-6-(1-(1-(6-(1-(2-(2,6-dioxopiperidin-3-yl)-1,3-dioxoisoindolin-4-yl)piperidine-4-carboxamido)hexyl)piperidin-4-yl)-1H-pyrazol-4-yl)pyrazine-2-carboxylate] | 48.06 | 43.66 | 4.4 | 75.49 | 43.94
6 | Nc1ncc(-c2cnn(C3CCN(CCCCCCNC(=O)C4CCN(c5ccc6c(c5)C(=O)N(C5CCC(=O)NC5=O)C6=O)CC4)CC3)c2)nc1C(=O)O[C@@H](C(=O)Nc1ccc(F)cc1)c1ccccc1 (stereo partly drawn) [TDH-109, (R)-2-((4-fluorophenyl)amino)-2-oxo-1-phenylethyl 3-amino-6-(1-(1-(6-(1-(2-(2,6-dioxopiperidin-3-yl)-1,3-dioxoisoindolin-5-yl)piperidine-4-carboxamido)hexyl)piperidin-4-yl)-1H-pyrazol-4-yl)pyrazine-2-carboxylate] | 48.55 | 56.91 | 2.8 | 71.74 | 48.69
7 | Nc1ncc(-c2cnn(C3CCN(CCOCCOCCNC(=O)C4CCN(c5cccc6c5C(=O)N(C5CCC(=O)NC5=O)C6=O)CC4)CC3)c2)nc1C(=O)O[C@@H](C(=O)Nc1ccc(F)cc1)c1ccccc1 (stereo partly drawn) [TDH-110, (R)-2-((4-fluorophenyl)amino)-2-oxo-1-phenylethyl 3-amino-6-(1-(1-(2-(2-(2-(1-(2-(2,6-dioxopiperidin-3-yl)-1,3-dioxoisoindolin-4-yl)piperidine-4-carboxamido)ethoxy)ethoxy)ethyl)piperidin-4-yl)-1H-pyrazol-4-yl)pyrazine-2-carboxylate] | 9.84 | 46.89 | 5.2 | 55.93 | 72.8

Now from value to compound, other results behind:

Row | Degradation assay (Degradation %) 1 μM (MLKL [1]) [%] | Degradation assay (Degradation %) 10 μM (MLKL [1]) [%] | Kd (MLKL [2]) [nM] | Structure (SMILES) | Necroptosis inhibition assay (Rescue %) 1 μM (FADD−/− Jurkat cells) [%] | Necroptosis inhibition assay (Rescue %) 10 μM (FADD−/− Jurkat cells) [%]
8 | 35.85 | 29.42 | 1.9 | Nc1ncc(-c2cnn(C3CCN(CCCCCCNC(=O)CNc4cccc5c4C(=O)N(C4CCC(=O)NC4=O)C5=O)CC3)c2)nc1C(=O)O[C@@H](C(=O)Nc1ccc(F)cc1)c1ccccc1 (stereo partly drawn) [TDH-101, (R)-2-((4-fluorophenyl)amino)-2-oxo-1-phenylethyl 3-amino-6-(1-(1-(6-(2-((2-(2,6-dioxopiperidin-3-yl)-1,3-dioxoisoindolin-4-yl)amino)acetamido)hexyl)piperidin-4-yl)-1H-pyrazol-4-yl)pyrazine-2-carboxylate] | 50.77 | 18.45
9 | 5.5 | 52.04 | 1.4 | Nc1ncc(-c2cnn(C3CCN(CCOCCOCCNC(=O)CNc4ccc5c(c4)C(=O)N(C4CCC(=O)NC4=O)C5=O)CC3)c2)nc1C(=O)O[C@@H](C(=O)Nc1ccc(F)cc1)c1ccccc1 (stereo partly drawn) [TDH-103, (R)-2-((4-fluorophenyl)amino)-2-oxo-1-phenylethyl 3-amino-6-(1-(1-(2-(2-(2-(2-((2-(2,6-dioxopiperidin-3-yl)-1,3-dioxoisoindolin-5-yl)amino)acetamido)ethoxy)ethoxy)ethyl)piperidin-4-yl)-1H-pyrazol-4-yl)pyrazine-2-carboxylate] | 34.93 | 59.65
10 | 61.54 | 39.01 | 9.8 | Nc1ncc(-c2cnn(C3CCN(C(=O)CCCCCC#Cc4cccc5c4CN(C4CCC(=O)NC4=O)C5=O)CC3)c2)nc1C(=O)O[C@@H](C(=O)Nc1ccc(F)cc1)c1ccccc1 (stereo partly drawn) [TDH-423, (R)-2-((4-fluorophenyl)amino)-2-oxo-1-phenylethyl 3-amino-6-(1-(1-(8-(2-(2,6-dioxopiperidin-3-yl)-1-oxoisoindolin-4-yl)oct-7-ynoyl)piperidin-4-yl)-1H-pyrazol-4-yl)pyrazine-2-carboxylate] | – | –
